Laboratory results reported in patent US20250171457A1, “NITROGEN-CONTAINING HETEROCYCLIC COMPOUND HAVING NRF2 ACTIVATION EFFECT” (CHUGAI SEIYAKU KABUSHIKI KAISHA, priority 2022, published 2025).

System: Nrf2 transcriptional activity (pARE-Luc reporter) in HepG2 cells
Test: In vitro Nrf2 transcriptional activity measurement by ARE-dependent reporter assay in HepG2 cell
Type: cell-based, human
Conditions: Homo sapiens; HepG2 cells transfected with pARE-Luc, 4 hours at 37° C.; luciferase activity of Example 1-54 or Example 17-23 at 3.75 μM defined as 100%
How it was run: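 HepG2 cells transfected with pGL4.37 (pARE-Luc), replated onto compound and incubated 4 h at 37° C; luciferase read by Bright-Glo luminescence. Response normalized to 100% set by a reference compound at 3.75 μM; EC50 from dose-response curve.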

Compound | EC50
COCCN1CCN(c2cc(Cl)c(C(=O)N3COc4c(cccc4-c4cc(N5C6CCC5COC6)c(C(=O)O)cc4F)C3)c(Cl)c2)CC1C [Compound 8-5, 4-[3-[2,6-Dichloro-4-[(3S)-4-(2-methoxyethyl)-3-methylpiperazan-1-yl]benzoyl]-2,4-dihydro-1,3-benzoxazin-8-yl]-5-fluoro-2-(3-oxa-8-azabicyclo[3.2.1]octan-8-yl)benzoic acid] | 2.4 nM
COCCN1CC[C@H](Oc2cc(Cl)c(C(=O)N3COc4c(cccc4-c4cc(N5CCOCC5)c(C(=O)O)cc4F)C3)c(Cl)c2)C1 [Compound 8-6, 4-[3-[2,6-Dichloro-4-[(3S)-1-(2-methoxyethyl)pyrrolidin-3-yl]oxybenzoyl]-2,4-dihydro-1,3-benzoxazin-8-yl]-5-fluoro-2-morpholin-4-ylbenzoic acid] | 2.7 nM
COCCN1CCC[C@@H](Oc2cc(Cl)c(C(=O)N3COc4c(cccc4-c4cc(N5CCOCC5)c(C(=O)O)cc4F)C3)c(Cl)c2)C1 [Compound 8-7, 4-[3-[2,6-Dichloro-4-[(3R)-1-(2-methoxyethyl)piperidin-3-yl]oxybenzoyl]-2,4-dihydro-1,3-benzoxazin-8-yl]-5-fluoro-2-morpholin-4-ylbenzoic acid] | 2.1 nM
O=C(O)c1cc(F)c(-c2cccc3c2OCN(C(=O)c2c(Cl)cc(OC4CN(CC(F)(F)F)C4)cc2Cl)C3)cc1N1C2CCC1COC2 [Compound 8-8, 4-[3-[2,6-Dichloro-4-[1-(2,2,2-trifluoroethyl)azetidin-3-yl]oxybenzoyl]-2,4-dihydro-1,3-benzoxazin-8-yl]-5-fluoro-2-(3-oxa-8-azabicyclo[3.2.1]octan-8-yl)benzoic acid] | 4.8 nM
COCCN1CC2(CCN(c3cc(Cl)c(C(=O)N4COc5c(cccc5-c5cc(N6C7CCC6COC7)c(C(=O)O)cc5F)C4)c(Cl)c3)C2)C1 [Compound 8-9, 4-[3-[2,6-Dichloro-4-[2-(2-methoxyethyl)-2,7-diazaspiro[3.4]octan-7-yl]benzoyl]-2,4-dihydro-1,3-benzoxazin-8-yl]-5-fluoro-2-(3-oxa-8-azabicyclo[3.2.1]octan-8-yl)benzoic acid] | 9.5 nM
CN1CCOC2(C1)CN(c1cc(Cl)c(C(=O)N3COc4c(cccc4-c4cc(N5C6CCC5COC6)c(C(=O)O)cc4F)C3)c(Cl)c1)C2 [Compound 9-1, 4-[3-[2,6-Dichloro-4-(8-methyl-5-oxa-2,8-diazaspiro[3.5]nonan-2-yl)benzoyl]-2,4-dihydro-1,3-benzoxazin-8-yl]-5-fluoro-2-(3-oxa-8-azabicyclo[3.2.1]octan-8-yl)benzoic acid] | 3.5 nM
O=C(O)c1cc(F)c(-c2cccc3c2OCN(C(=O)c2c(Cl)cc(N4CC5(C4)CN(C4CC(F)(F)C4)C5)cc2Cl)C3)cc1N1C2CCC1COC2 [Compound 9-2, 4-[3-[2,6-Dichloro-4-[2-(3,3-difluorocyclobutyl)-2,6-diazaspiro[3.3]heptan-6-yl]benzoyl]-2,4-dihydro-1,3-benzoxazin-8-yl]-5-fluoro-2-(3-oxa-8-azabicyclo[3.2.1]octan-8-yl)benzoic acid] | 7.4 nM
O=C(O)c1cc(F)c(-c2cccc3c2OCN(C(=O)c2c(Cl)cc(N4CC5(C4)CN(C4COC4)C5)cc2Cl)C3)cc1N1C2CCC1COC2 [Compound 9-3, 4-[3-[2,6-Dichloro-4-[2-(oxetan-3-yl)-2,6-diazaspiro[3.3]heptan-6-yl]benzoyl]-2,4-dihydro-1,3-benzoxazin-8-yl]-5-fluoro-2-(3-oxa-8-azabicyclo[3.2.1]octan-8-yl)benzoic acid] | 19 nM
O=C(O)c1cc(F)c(-c2cccc3c2OCN(C(=O)c2c(Cl)cc(N4CC5(C4)CN(C4CC4)C5)cc2Cl)C3)cc1N1C2CCC1COC2 [Compound 9-4, 4-[3-[2,6-Dichloro-4-(2-cyclopropyl-2,6-diazaspiro[3.3]heptan-6-yl)benzoyl]-2,4-dihydro-1,3-benzoxazin-8-yl]-5-fluoro-2-(3-oxa-8-azabicyclo[3.2.1]octan-8-yl)benzoic acid] | 7.5 nM
CN1CCN(c2cc(Cl)c(C(=O)N3COc4c(cccc4-c4cc(N5C6CCC5COC6)c(C(=O)O)cc4F)C3)c(Cl)c2)C2CC21 (centres unmarked) [Compound 9-5, 4-[3-[2,6-Dichloro-4-(5-methyl-2,5-diazabicyclo[4.1.0]heptan-2-yl)benzoyl]-2,4-dihydro-1,3-benzoxazin-8-yl]-5-fluoro-2-(3-oxa-8-azabicyclo[3.2.1]octan-8-yl)benzoic acid] | 4.6 nM
C[C@@H]1CN(c2cc(Cl)c(C(=O)N3COc4c(cccc4-c4cc(N5C6CCC5COC6)c(C(=O)O)cc4F)C3)c(Cl)c2)[C@@H](C)CN1C [Compound 9-6, 4-[3-[2,6-Dichloro-4-[(2S,5R)-2,4,5-trimethylpiperazin-1-yl]benzoyl]-2,4-dihydro-1,3-benzoxazin-8-yl]-5-fluoro-2-(3-oxa-8-azabicyclo[3.2.1]octan-8-yl)benzoic acid] | 5.7 nM
CN1C2CCC1CN(c1cc(Cl)c(C(=O)N3COc4c(cccc4-c4cc(N5C6CCC5COC6)c(C(=O)O)cc4F)C3)c(Cl)c1)C2 [Compound 9-7, 4-[3-[2,6-Dichloro-4-(8-methyl-3,8-diazabicyclo[3.2.1]octan-3-yl)benzoyl]-2,4-dihydro-1,3-benzoxazin-8-yl]-5-fluoro-2-(3-oxa-8-azabicyclo[3.2.1]octan-8-yl)benzoic acid] | 14 nM
CN1CC2CCC(C1)N2c1cc(Cl)c(C(=O)N2COc3c(cccc3-c3cc(N4C5CCC4COC5)c(C(=O)O)cc3F)C2)c(Cl)c1 [Compound 9-8, 4-[3-[2,6-Dichloro-4-(3-methyl-3,8-diazabicyclo[3.2.1]octan-8-yl)benzoyl]-2,4-dihydro-1,3-benzoxazin-8-yl]-5-fluoro-2-(3-oxa-8-azabicyclo[3.2.1]octan-8-yl)benzoic acid] | 3.5 nM
C[C@@H]1CN(c2cc(Cl)c(C(=O)N3COc4c(cccc4-c4cc(N5C6CCC5COC6)c(C(=O)O)cc4F)C3)c(Cl)c2)[C@H](C)CN1C [Compound 9-9, 4-[3-[2,6-Dichloro-4-[(2R,5R)-2,4,5-trimethylpiperazin-1-yl]benzoyl]-2,4-dihydro-1,3-benzoxazin-8-yl]-5-fluoro-2-(3-oxa-8-azabicyclo[3.2.1]octan-8-yl)benzoic acid] | 1.5 nM
CN1CC2CC(C1)N2c1cc(Cl)c(C(=O)N2COc3c(cccc3-c3cc(N4C5CCC4COC5)c(C(=O)O)cc3F)C2)c(Cl)c1 [Compound 9-10, 4-[3-[2,6-Dichloro-4-(3-methyl-3,6-diazabicyclo[3.1.1]heptan-6-yl)benzoyl]-2,4-dihydro-1,3-benzoxazin-8-yl]-5-fluoro-2-(3-oxa-8-azabicyclo[3.2.1]octan-8-yl)benzoic acid] | 8.8 nM
C[C@@H]1CN(C)[C@@H](C)CN1c1cc(Cl)c(C(=O)N2COc3c(cccc3-c3cc(N4C5CCC4COC5)c(C(=O)O)cc3F)C2)c(Cl)c1 [Compound 9-11, 4-[3-[2,6-Dichloro-4-[(2R,5S)-2,4,5-trimethylpiperazin-1-yl]benzoyl]-2,4-dihydro-1,3-benzoxazin-8-yl]-5-fluoro-2-(3-oxa-8-azabicyclo[3.2.1]octan-8-yl)benzoic acid] | 19 nM
C[C@H]1CN(C)CCN1c1cc(Cl)c(C(=O)N2COc3c(cccc3-c3cc(N4C5CCC4COC5)c(C(=O)O)cc3F)C2)c(Cl)c1 [Compound 9-12, 4-[3-[2,6-Dichloro-4-[(2S)-2,4-dimethylpiperazin-1-yl]benzoyl]-2,4-dihydro-1,3-benzoxazin-8-yl]-5-fluoro-2-(3-oxa-8-azabicyclo[3.2.1]octan-8-yl)benzoic acid] | 3.1 nM
C[C@H]1CN(c2cc(Cl)c(C(=O)N3COc4c(cccc4-c4cc(N5C6CCC5COC6)c(C(=O)O)cc4F)C3)c(Cl)c2)[C@@H](C)CN1C [Compound 9-13, 4-[3-[2,6-Dichloro-4-[(2S,5S)-2,4,5-trimethylpiperazin-1-yl]benzoyl]-2,4-dihydro-1,3-benzoxazin-8-yl]-5-fluoro-2-(3-oxa-8-azabicyclo[3.2.1]octan-8-yl)benzoic acid] | 6.7 nM
CN1CCN(c2cc(Cl)c(C(=O)N3COc4c(cccc4-c4cc(N5C6CCC5COC6)c(C(=O)O)cc4F)C3)c(Cl)c2)C(C)(C)C1 [Compound 9-14, 4-[3-[2,6-Dichloro-4-(2,2,4-trimethylpiperazin-1-yl)benzoyl]-2,4-dihydro-1,3-benzoxazin-8-yl]-5-fluoro-2-(3-oxa-8-azabicyclo[3.2.1]octan-8-yl)benzoic acid] | 11 nM
O=C(O)c1cc(F)c(-c2cccc3c2OCN(C(=O)c2c(Cl)cc(N4CCN(C5COC5)C5CC54)cc2Cl)C3)cc1N1C2CCC1COC2 (centres unmarked) [Compound 9-15, 4-[3-[2,6-Dichloro-4-[5-(oxetan-3-yl)-2,5-diazabicyclo[4.1.0]heptan-2-yl]benzoyl]-2,4-dihydro-1,3-benzoxazin-8-yl]-5-fluoro-2-(3-oxa-8-azabicyclo[3.2.1]octan-8-yl)benzoic acid] | 14 nM
C[C@@H]1CN(C2COC2)CCN1c1cc(Cl)c(C(=O)N2COc3c(cccc3-c3cc(N4C5CCC4COC5)c(C(=O)O)cc3F)C2)c(Cl)c1 [Compound 9-16, 4-[3-[2,6-Dichloro-4-[(2R)-2-methyl-4-(oxetan-3-yl)piperazin-1-yl]benzoyl]-2,4-dihydro-1,3-benzoxazin-8-yl]-5-fluoro-2-(3-oxa-8-azabicyclo[3.2.1]octan-8-yl)benzoic acid] | 4.8 nM
O=C(O)c1cc(F)c(-c2cccc3c2OCN(C(=O)c2c(Cl)cc(N4CC5CCC(C4)N5C4COC4)cc2Cl)C3)cc1N1C2CCC1COC2 [Compound 9-17, 4-[3-[2,6-Dichloro-4-[8-(oxetan-3-yl)-3,8-diazabicyclo[3.2.1]octan-3-yl]benzoyl]-2,4-dihydro-1,3-benzoxazin-8-yl]-5-fluoro-2-(3-oxa-8-azabicyclo[3.2.1]octan-8-yl)benzoic acid] | 7.5 nM
O=C(O)c1cc(F)c(-c2cccc3c2OCN(C(=O)c2c(Cl)cc(N4C5CCC4CN(C4COC4)C5)cc2Cl)C3)cc1N1C2CCC1COC2 [Compound 9-18, 4-[3-[2,6-Dichloro-4-[3-(oxetan-3-yl)-3,8-diazabicyclo[3.2.1]octan-8-yl]benzoyl]-2,4-dihydro-1,3-benzoxazin-8-yl]-5-fluoro-2-(3-oxa-8-azabicyclo[3.2.1]octan-8-yl)benzoic acid] | 6.4 nM
